Source: patent US8178689B2, “Tricyclic compounds” (Hoffman-La Roche Inc., priority 2010, dated 2012)

Biological target: T1, Recombinant human liver GK1 (GST-GK) (Homo sapiens, UniProt P35557)
T1 construct: made in house; host or cells: E. coli
T1 sequence (P35557 1-466 isoform P35557-2): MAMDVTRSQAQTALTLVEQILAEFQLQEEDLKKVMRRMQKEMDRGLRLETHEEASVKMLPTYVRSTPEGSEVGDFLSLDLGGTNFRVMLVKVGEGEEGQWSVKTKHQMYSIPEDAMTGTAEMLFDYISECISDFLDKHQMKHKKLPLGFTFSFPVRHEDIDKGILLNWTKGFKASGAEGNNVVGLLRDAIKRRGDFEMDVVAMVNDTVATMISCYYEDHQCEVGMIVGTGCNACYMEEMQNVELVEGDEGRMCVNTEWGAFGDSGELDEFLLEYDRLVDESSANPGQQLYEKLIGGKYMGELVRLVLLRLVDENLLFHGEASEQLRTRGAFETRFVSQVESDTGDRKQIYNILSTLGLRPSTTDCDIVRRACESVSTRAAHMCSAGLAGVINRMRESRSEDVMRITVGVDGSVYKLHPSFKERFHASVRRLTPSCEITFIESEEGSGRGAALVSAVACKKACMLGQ
Experiment: In vitro glucokinase activity (G6PDH-coupled NADH generation assay)
Assay type: biochemical
Set-up: unit not given here
Conditions: concentration of activator that produced a 50% increase in the activity of GK; 5 mM D-glucose, 30° C., pH 7.1, 10% DMSO
Protocol: Glucokinase In Vitro Assay Protocol: Glucokinase (GK) was assayed by coupling the production of glucose-6-phosphate to the generation of NADH with glucose-6-phosphate dehydrogenase (G6PDH, 0.75-1 kunits/mg; Boehringer Mannheim, Indianapolis, Ind.) from Leuconostoc mesenteroides as the coupling enzyme:
Recombinant human liver GK1 was expressed in E. coli as a glutathione S-transferase fusion protein (GST-GK) [Liang et al, 1995]and was purified by chromatography over a glutathione-Sepharose 4B affinity column using the procedure provided by the manufacturer (Amersham Pharmacia Biotech, Piscataway, N.J.).
The assay was conducted at 30° C. in a flat bottom 96-well tissue culture plate from Costar (Cambridge, Mass.) with a final incubation volume of 120 μL. The incubation reaction contained the following: 25 mM Hepes buffer (pH 7.1), 25 mM KCl, 5 mM D-glucose, 1 mM ATP, 1.8 mM NAD, 2 mM MgCl2, 1 μM sorbitol-6-phosphate, 1 mM dithiothreitol, test drug or 10% DMSO, ˜7 units/ml G6PDH, and GK (see below). All organic reagents were >98% pure and were from Boehringer Mannheim with the exceptions of D-glucose and Hepes which were from Sigma Chemical Co, St Louis, Mo. Test compounds were dissolved in DMSO and were added to the incubation reaction minus GST-GK in a volume of 12 μL to yield a final DMSO concentration of 10%. This mix was pre-incubated in the temperature controlled chamber of a SPECTRAmax 250 microplate spectrophotometer (Molecular Devices Corporation, Sunnyvale, Calif.) for 10 minutes to allow temperature equilibrium and then the reaction was started by the addition of 20 μL GST-GK.
After addition of enzyme, the increase in optical density (OD) at 340 nm was monitored spectrophotometrically to determine the rate of change (OD340 per min). The GK activity (OD340/min) in control wells (10% DMSO minus GK activators) was compared with the activity in wells containing test GK activators, and the concentration of activator that produced a 50% increase in the activity of GK, i.e., the SC1.5:0.1, was calculated. The table below provides the in vitro glucokinase activity for the compounds in the Examples: […]

Row | Structure (SMILES) | SC 1.5:0.1
1 | O=C(Nc1ccccn1)[C@H](CC1CCCCC1)N1CC2=C(Oc3cccc(Cl)c3C2)C1=O [Example 1, (S)-2-(8-Chloro-3-oxo-3,9-dihydro-1H-chromeno[2,3-c]pyrrol-2-yl)-3-cyclohexyl-N-pyridin-2-yl-propionamide] | 1.311
2 | O=C(Nc1nccs1)[C@H](CC1CCCCC1)N1CC2=C(Oc3cccc(Cl)c3C2)C1=O [Example 2, (S)-2-(8-Chloro-3-oxo-3,9-dihydro-1H-chromeno[2,3-c]pyrrol-2-yl)-3-cyclohexyl-N-thiazol-2-yl-propionamide] | 4.051
3 | CC(C)C[C@@H](C(=O)Nc1ccccn1)N1CC2=C(Oc3cccc(Cl)c3C2)C1=O [Example 3, (S)-2-(8-Chloro-3-oxo-3,9-dihydro-1H-chromeno[2,3-c]pyrrol-2-yl)-4-methyl-pentanoic acid pyridin-2-ylamide] | 4.602
4 | CC(C)C[C@@H](C(=O)Nc1ccc(Cl)cn1)N1CC2=C(Oc3cccc(Cl)c3C2)C1=O [Example 4, (S)-2-(8-Chloro-3-oxo-3,9-dihydro-1H-chromeno[2,3-c]pyrrol-2-yl)-4-methyl-pentanoic acid (5-chloro-pyridin-2-yl)-amide] | 3.18
5 | CC(C)C[C@@H](C(=O)Nc1nccs1)N1CC2=C(Oc3cccc(Cl)c3C2)C1=O [Example 5, (S)-2-(8-Chloro-3-oxo-3,9-dihydro-1H-chromeno[2,3-c]pyrrol-2-yl)-4-methyl-pentanoic acid thiazol-2-ylamide] | 9.277
6 | COC(=O)c1ccc(NC(=O)[C@H](CC(C)C)N2CC3=C(Oc4cccc(Cl)c4C3)C2=O)nc1 [Example 6, 6-[(S)-2-(8-Chloro-3-oxo-3,9-dihydro-1H-chromeno[2,3-c]pyrrol-2-yl)-4-methyl-pentanoylamino]-nicotinic acid methyl ester] | 3.324
7 | COc1cccc2c1CC1=C(O2)C(=O)N([C@@H](CC2CCCCC2)C(=O)Nc2ccccn2)C1 [Example 7, (S)-3-Cyclohexyl-2-(8-methoxy-3-oxo-3,9-dihydro-1H-chromeno[2,3-c]pyrrol-2-yl)-N-pyridin-2-yl-propionamide] | 0.333
8 | COc1cccc2c1CC1=C(O2)C(=O)N([C@@H](CC2CCCCC2)C(=O)Nc2ccc(Cl)cn2)C1 [Example 8, (S)—N-(5-Chloro-pyridin-2-yl)-3-cyclohexyl-2-(8-methoxy-3-oxo-3,9-dihydro-1H-chromeno[2,3-c]pyrrol-2-yl)-propionamide] | 0.292
9 | COc1cccc2c1CC1=C(O2)C(=O)N([C@@H](CC2CCCCC2)C(=O)Nc2nccs2)C1 [Example 9, (S)-3-Cyclohexyl-2-(8-methoxy-3-oxo-3,9-dihydro-1H-chromeno[2,3-c]pyrrol-2-yl)-N-thiazol-2-yl-propionamide] | 0.746
10 | COC(=O)c1ccc(NC(=O)[C@H](CC2CCCCC2)N2CC3=C(Oc4cccc(OC)c4C3)C2=O)nc1 [Example 10, 6-[(S)-3-Cyclohexyl-2-(8-methoxy-3-oxo-3,9-dihydro-1H-chromeno[2,3-c]pyrrol-2-yl)-propionylamino]-nicotinic acid methyl ester] | 0.302
11 | COc1cccc2c1CC1=C(O2)C(=O)N([C@@H](CC(C)C)C(=O)Nc2nccs2)C1 [Example 11, (S)-2-(8-Methoxy-3-oxo-3,9-dihydro-1H-chromeno[2,3-c]pyrrol-2-yl)-4-methyl-pentanoic acid thiazol-2-ylamide] | 8.123
12 | COC(=O)c1ccc(NC(=O)[C@H](CC(C)C)N2CC3=C(Oc4cccc(OC)c4C3)C2=O)nc1 [Example 12, 6-[(S)-2-(8-Methoxy-3-oxo-3,9-dihydro-1H-chromeno[2,3-c]pyrrol-2-yl)-4-methyl-pentanoylamino]-nicotinic acid methyl ester] | 0.906
13 | COc1ccc(OC)c2c1CC1=C(O2)C(=O)N([C@@H](CC2CCCCC2)C(=O)Nc2ccccn2)C1 [Example 13, (S)-3-Cyclohexyl-2-(5,8-dimethoxy-3-oxo-3,9-dihydro-1H-chromeno[2,3-c]pyrrol-2-yl)-N-pyridin-2-yl-propionamide] | 0.304
14 | COc1ccc(OC)c2c1CC1=C(O2)C(=O)N([C@@H](CC(C)C)C(=O)Nc2ccc(Cl)cn2)C1 [Example 14, (S)-2-(5,8-Dimethoxy-3-oxo-3,9-dihydro-1H-chromeno[2,3-c]pyrrol-2-yl)-4-methyl-pentanoic acid (5-chloro-pyridin-2-yl)-amide] | 0.911
15 | COc1ccc(OC)c2c1CC1=C(O2)C(=O)N([C@@H](CC2CCCCC2)C(=O)Nc2ccc(Cl)cn2)C1 [Example 15, (S)—N-(5-Chloro-pyridin-2-yl)-3-cyclohexyl-2-(5,8-dimethoxy-3-oxo-3,9-dihydro-1H-chromeno[2,3-c]pyrrol-2-yl)-propionamide] | 0.428
16 | COc1ccc(OC)c2c1CC1=C(O2)C(=O)N([C@@H](CC2CCCCC2)C(=O)Nc2nccs2)C1 [Example 16, (S)-3-Cyclohexyl-2-(5,8-dimethoxy-3-oxo-3,9-dihydro-1H-chromeno[2,3-c]pyrrol-2-yl)-N-thiazol-2-yl-propionamide] | 2.439
17 | COC(=O)c1ccc(NC(=O)[C@H](CC2CCCCC2)N2CC3=C(Oc4c(OC)ccc(OC)c4C3)C2=O)nc1 [Example 17, 6-[(S)-3-Cyclohexyl-2-(5,8-dimethoxy-3-oxo-3,9-dihydro-1H-chromeno[2,3-c]pyrrol-2-yl)-propionylamino]-nicotinic acid methyl ester] | 0.219
18 | COc1ccc(OC)c2c1CC1=C(O2)C(=O)N([C@@H](CC(C)C)C(=O)Nc2ccccn2)C1 [Example 18, (S)-2-(5,8-Dimethoxy-3-oxo-3,9-dihydro-1H-chromeno[2,3-c]pyrrol-2-yl)-4-methyl-pentanoic acid pyridin-2-ylamide] | 2.532
19 | COC(=O)c1ccc(NC(=O)[C@H](CC(C)C)N2CC3=C(Oc4c(OC)ccc(OC)c4C3)C2=O)nc1 [Example 19, 6-[(S)-2-(5,8-Dimethoxy-3-oxo-3,9-dihydro-1H-chromeno[2,3-c]pyrrol-2-yl)-4-methyl-pentanoylamino]-nicotinic acid methyl ester] | 0.803
20 | O=C(Nc1ccccn1)[C@H](CC1CCCCC1)N1CC2=C(Oc3c(Cl)cccc3C2)C1=O [Example 20, (S)-2-(5-Chloro-3-oxo-3,9-dihydro-1H-chromeno[2,3-c]pyrrol-2-yl)-3-cyclohexyl-N-pyridin-2-yl-propionamide] | 2.423
21 | O=C(Nc1nccs1)[C@H](CC1CCCCC1)N1CC2=C(Oc3c(Cl)cccc3C2)C1=O [Example 21, (S)-2-(5-Chloro-3-oxo-3,9-dihydro-1H-chromeno[2,3-c]pyrrol-2-yl)-3-cyclohexyl-N-thiazol-2-yl-propionamide] | 4.181
22 | COC(=O)c1ccc(NC(=O)[C@H](CC(C)C)N2CC3=C(Oc4c(Cl)cccc4C3)C2=O)nc1 [Example 22, 6-[(S)-2-(5-Chloro-3-oxo-3,9-dihydro-1H-chromeno[2,3-c]pyrrol-2-yl)-4-methyl-pentanoylamino]-nicotinic acid methyl ester] | 9.858
23 | CC(C)C[C@@H](C(=O)Nc1ccccn1)N1CC2=C(Oc3c(Cl)cccc3C2)C1=O [Example 23, (S)-2-(5-Chloro-3-oxo-3,9-dihydro-1H-chromeno[2,3-c]pyrrol-2-yl)-4-methyl-pentanoic acid pyridin-2-ylamide] | 11.865
24 | CC(C)C[C@@H](C(=O)Nc1nccs1)N1CC2=C(Oc3c(Cl)cccc3C2)C1=O [Example 24, (S)-2-(5-Chloro-3-oxo-3,9-dihydro-1H-chromeno[2,3-c]pyrrol-2-yl)-4-methyl-pentanoic acid thiazol-2-ylamide] | 18.957
25 | COc1cccc2c1CC1=C(O2)C(=O)N([C@@H](CC2CCCCC2)C(=O)Nc2ccn(C[C@@H](O)CO)n2)C1 [Example 25, (S)-3-Cyclohexyl-N-[1-((R)-2,3-dihydroxy-propyl)-1H-pyrazol-3-yl]-2-(8-methoxy-3-oxo-3,9-dihydro-1H-chromeno[2,3-c]pyrrol-2-yl)-propionamide] | 0.507
